Measurements published in paper PMC11555231 (Nature Communications, 2024).
Bridge positions count the residues as written; N and C are the ends. Square brackets hold non-standard residues; d marks the D form. Peptide text beside a SMILES is read from it.

Key:
hPADI4 = molecular target: T1, hPADI4 (Homo sapiens, UniProt Q9UM07); assay: COLDER assay, inhibition of PADI4 at 10 mM CaCl2 (substrate BAEE); type: biochemical; conditions: COLDER, 10 mM CaCl2, peptide 10–0.0003 µM
T1 construct: PADI4 (residues 1–663); Avi-Tag (unbiotinylated); made in house; host or cells: E. coli BL21(DE3) without BirA
Protocol: PADI4 activity was assessed using the COLDER assay[43] that measures the formation of urea-containing compounds (e.g. citrulline). The reaction was carried out in a 96-well plate with a final volume of 50 µl. His-PADI4 (50 nM) was incubated with different concentrations of peptides (100 µM to 0.3 nM) in the presence of CaCl2 (from 10 mM to 0.001 mM as specified) for 10 min. The reaction was started by the addition of 10 mM N^α-Benzoyl-L-arginine ethyl ester hydrochloride (BAEE, Merck). After 30 min, the reaction was quenched with EDTA (50 mM final concentration). For colour development, 200 µl of COLDER solution, consisting of 1 volume of solution A (80 mM diacetyl monoxime/2,3-butanedione monoxime (Merck) and 2 mM thiosemicarbazide (Acros Organics)) and 3 volumes of solution B (3 M H3PO4, 6 M H2SO4 and 2 mM NH4Fe(SO4)2) were added to each well and the mixture was heated at 95 °C for 15 min. After cooling to RT, absorbance at 540 nm was measured, and citrulline concentration was determined using a standard curve of citrulline standards. All studies were performed within the linear range of PADI4 activity, and data analysis was performed using Prism GraphPad (Dotmatics). Data are presented as the average ± standard error of the mean from at least two independent replicates.

hPADI4-stable mES cells = assay: High content microscopy of citrullinated histone H3 (H3Cit) in hPADI4-stable mES cells; type: cell-based, mouse; conditions: mean H3Cit intensity, KSR/2i 3 h, range of peptide concentrations
Protocol: HaLo-GFP-mito HeLa cells were grown in DMEM (Gibco) supplemented with 10% foetal bovine serum (FBS), penicillin/streptomycin (100 µg/ml) and puromycin (1 µg/ml) at 37 °C, 5% CO2. HaLo-GFP-mito HeLa cell line[82] was profiled by short tandem repeat analysis (STR) and tested negative for mycoplasma by the Cell Services Technology Platform at the Francis Crick Institute. E14 –mouse embryonic stem cells (Cambridge Stem Cell Institute, UK) were cultured in plates coated with 1% gelatine in GMEM supplemented with 10% foetal calf serum (FCS) batch-tested for ES cell culture (Gibco), 0.1 mM non-essential amino acids, 2 mM L-glutamine, 1 mM sodium pyruvate, 0.1 mM β-mercaptoethanol and 50 ng/mL leukaemia inhibitory factor (LIF) (ESGRO, Millipore). For PADI4 activation, cells were cultured in GMEM containing 10% knockout serum replacement (KSR, Life Technologies), 1% FCS batch-tested for ES cell culture (Gibco), 0.1 mM non-essential amino acids, L-glutamine, 1 mM sodium pyruvate, 0.1 mM β-mercaptoethanol, 50 ng/mL LIF (ESGRO, Millipore), 1 μM PD0325901 (AxonMedChem) and 3 μM CHIR99021 (AxonMedChem). For the generation of E14 mES stably expressing human PADI4 (hPADI4-stable), human PADI4 cDNA was inserted into ES E14 cells using the piggyBac transposon system. The Gateway system was used to clone human PADI4 into the piggyBac vector using primers PADI4_AttB1_F and PADI4_AttB2_R (Table S4). pPB-CAG-CTRL (empty vector) or pPB-CAG-hPADI4 vectors […] were transfected with the piggyBac transposase (pPBase) expression vector, pCAGPBase […], by lipofection according to the manufacturer’s instructions (Lipofectamine 2000, Invitrogen). E14 cells constitutively expressing the hygromycin resistance gene and human PADI4 were selected and expanded in media containing […] hygromycin.
E14 cells were seeded onto 96-well PerkinElmer cell carrier ultra plates (Phenoplates) coated with 0.1% gelatine, at 25,000 cells per well and grown overnight at 37 °C, 5% CO2. Outer wells were excluded but medium was added to minimise any edge effects. […]

T1 sequence (Q9UM07 whole entry, the tested form may be a part): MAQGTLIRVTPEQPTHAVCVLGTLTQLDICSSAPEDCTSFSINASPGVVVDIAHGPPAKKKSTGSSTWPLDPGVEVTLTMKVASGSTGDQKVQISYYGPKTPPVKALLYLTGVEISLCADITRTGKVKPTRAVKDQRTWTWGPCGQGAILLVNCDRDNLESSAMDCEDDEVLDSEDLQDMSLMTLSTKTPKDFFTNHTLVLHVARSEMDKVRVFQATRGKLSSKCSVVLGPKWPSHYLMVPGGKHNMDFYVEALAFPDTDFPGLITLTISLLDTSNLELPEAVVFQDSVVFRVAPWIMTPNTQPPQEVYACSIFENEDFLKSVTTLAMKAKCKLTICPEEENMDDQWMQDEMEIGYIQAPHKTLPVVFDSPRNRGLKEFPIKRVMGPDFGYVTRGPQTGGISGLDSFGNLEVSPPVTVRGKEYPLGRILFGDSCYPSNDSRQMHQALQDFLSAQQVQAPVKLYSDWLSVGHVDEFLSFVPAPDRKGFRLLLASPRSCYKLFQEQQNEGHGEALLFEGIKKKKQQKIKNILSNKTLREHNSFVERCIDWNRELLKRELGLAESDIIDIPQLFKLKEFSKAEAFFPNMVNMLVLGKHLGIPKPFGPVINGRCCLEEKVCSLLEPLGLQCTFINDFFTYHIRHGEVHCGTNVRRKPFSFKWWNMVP

N=C(N)NCCC[C@@H]1NC(=O)[C@H](CC(=O)O)NC(=O)[C@@H](Cc2ccc(O)cc2)NC(=O)CSC[C@@H](C(=O)NCC(N)=O)NC(=O)[C@H](Cc2ccc(O)cc2)NC(=O)[C@H](CCCCN)NC(=O)[C@@H]2CCCN2C(=O)[C@H](Cc2c[nH]cn2)NC(=O)[C@H](CCCNC(=N)N)NC(=O)[C@H](Cc2ccc(O)cc2)NC(=O)[C@H](Cc2c[nH]cn2)NC(=O)[C@H](Cc2c[nH]cn2)NC1=O [PADI4_3i] ({CH2CO}-[dY]DRHHYRHPKYCG-NH2; thioether N-12)
PADI4 inhibition (in words) (hPADI4): did not bind or inhibit PADI4 | inhibition of intracellular PADI4 (in words) (hPADI4-stable mES cells): no inhibition
